The subject of this experiment is Trychophyton rubrum. As to the kind of experiment: Percent kill rate of topical products inoculated with T. rubrum (residual microbial content by serial dilution). Format: cell-based.

Structures are written as SMILES.

Method: Various compositions, e.g. creams, lotions, and gels, containing urea as the sole active ingredient at various concentrations were tested against Trychophyton rubrum, a fungus typically implicated in Moccasin tinea pedis and onychomycosis, and compared to traditional antifungal compositions. A solution of the individual or combination products were inoculated with a known starting concentration of T. rubrum. These solutions were then retested at the specific time intervals to determine the residual microbial content.
The decrease in the residual microbial content calculated as a percentage of its initial starting concentration is the percent kill rate reported in the following table.

In the case of `NC(N)=O` [urea], the “antifungal activity (conclusion from the kill rate tests)” value is “effective antifungal agent”.

Source of the values: US6986896B2, “Method of treating fungal conditions of the skin” (Bradley Pharmaceuticals, Inc., priority 2002, dated 2006).
